Where a SMILES comes first, the peptide text is derived from it.
Legend:
Conditions in all cases: 50:1 E:T
[1] = system: WT1+ allo APC with restricting HLA allele loaded with WT1 peptide; experiment: Cr51 release assay, cytotoxic CTL response vs peptide loaded allogeneic APC sharing restricting HLA allele (HLA restriction)
[2] = system: WT1- allo APC with restricting HLA allele; experiment: Cr51 release assay, cytotoxic CTL response vs unloaded allogeneic APC sharing restricting HLA allele; type: cell-based, human
[3] = system: WT1 peptide loaded autologous APC; experiment: Cr51 release assay, cytotoxic CTL response vs peptide loaded autologous APC; type: cell-based, human
WT1- autologous APC = experiment: Cr51 release assay, cytotoxic CTL response vs unmodified autologous APC; type: cell-based, human

## CC(C)C[C@H](NC(=O)[C@H](CS)NC(=O)[C@H](CO)NC(=O)[C@@H]1CCCN1)C(=O)N[C@@H](CCC(=O)O)C(=O)N[C@@H](CO)C(=O)N[C@@H](CCC(N)=O)C(=O)N1CCC[C@H]1C(=O)N[C@@H](C)C(=O)O [SEQ ID NO: 162] (H-PSCLESQPA-OH; N-terminus and C-terminus assumed)
[1]; HLA allele B3501
  Cytotoxic CTL response, % vs WT1+ allo APC with restricting HLA allele loaded with WT1 peptide: 21%
[2]; HLA allele B3501
  Cytotoxic CTL response, % vs WT1- allo APC with restricting HLA allele: 0%
[3]; HLA allele B3501
  Cytotoxic CTL response, % vs WT1 peptide loaded autologous APC: 35%
WT1- autologous APC; HLA allele B3501
  Cytotoxic CTL response, % vs WT1- autologous APC: 0%

## CC(C)[C@H](NC(=O)[C@@H](NC(=O)[C@H](CO)NC(=O)[C@H](Cc1ccc(O)cc1)NC(=O)CNC(=O)[C@H](CCC(N)=O)NC(=O)[C@@H](N)CC(N)=O)[C@@H](C)O)C(=O)N[C@H](C(=O)N[C@@H](Cc1ccccc1)C(=O)O)[C@@H](C)O [SEQ ID NO: 163] (H-NQGYSTVTF-OH; N-terminus and C-terminus assumed)
[1]; HLA allele A0101
  Cytotoxic CTL response, % vs WT1+ allo APC with restricting HLA allele loaded with WT1 peptide: 15%
[2]; HLA allele A0101
  Cytotoxic CTL response, % vs WT1- allo APC with restricting HLA allele: 4%
[3]; HLA allele A0101
  Cytotoxic CTL response, % vs WT1 peptide loaded autologous APC: 19%
WT1- autologous APC; HLA allele A0101
  Cytotoxic CTL response, % vs WT1- autologous APC: 2%

## C[C@H](NC(=O)[C@H](C)NC(=O)[C@H](Cc1c[nH]cn1)NC(=O)[C@@H](N)Cc1c[nH]cn1)C(=O)N[C@@H](CCC(N)=O)C(=O)N[C@@H](Cc1ccccc1)C(=O)N1CCC[C@H]1C(=O)N[C@@H](CC(N)=O)C(=O)N[C@@H](Cc1c[nH]cn1)C(=O)O [SEQ ID NO: 164] (H-HHAAQFPNH-OH; N-terminus and C-terminus assumed)
[1]; HLA allele B3801
  Cytotoxic CTL response, % vs WT1+ allo APC with restricting HLA allele loaded with WT1 peptide: 17%
[2]; HLA allele B3801
  Cytotoxic CTL response, % vs WT1- allo APC with restricting HLA allele: 1%
[3]; HLA allele B3801
  Cytotoxic CTL response, % vs WT1 peptide loaded autologous APC: 26%
WT1- autologous APC; HLA allele B3801
  Cytotoxic CTL response, % vs WT1- autologous APC: 0%

## C[C@@H](O)[C@H](NC(=O)[C@H](CS)NC(=O)[C@H](CO)NC(=O)[C@H](CC(=O)O)NC(=O)[C@@H](NC(=O)[C@@H]1CCCN1C(=O)[C@@H](NC(=O)[C@H](Cc1c[nH]cn1)NC(=O)[C@@H](N)CS)[C@@H](C)O)[C@@H](C)O)C(=O)O [SEQ ID NO: 166] (H-CHTPTDSCT-OH)
[1]; HLA allele B4402
  Cytotoxic CTL response, % vs WT1+ allo APC with restricting HLA allele loaded with WT1 peptide: 19%
[2]; HLA allele B4402
  Cytotoxic CTL response, % vs WT1- allo APC with restricting HLA allele: 7%
[3]; HLA allele B4402
  Cytotoxic CTL response, % vs WT1 peptide loaded autologous APC: 37%
WT1- autologous APC; HLA allele B4402
  Cytotoxic CTL response, % vs WT1- autologous APC: 8%

## CC(C)C[C@H](NC(=O)[C@@H](NC(=O)[C@H](C)NC(=O)CNC(=O)[C@@H](N)CC(C)C)[C@@H](C)O)C(=O)N[C@@H](CCCCN)C(=O)NCC(=O)N[C@H](C(=O)N[C@@H](C)C(=O)N[C@@H](C)C(=O)O)C(C)C [SEQ ID NO: 176] (H-LGATLKGVAA-OH; N-terminus and C-terminus assumed)
[1]; HLA allele A0203
  Cytotoxic CTL response, % vs WT1+ allo APC with restricting HLA allele loaded with WT1 peptide: 21%
[2]; HLA allele A0203
  Cytotoxic CTL response, % vs WT1- allo APC with restricting HLA allele: 0%
[3]; HLA allele A0203
  Cytotoxic CTL response, % vs WT1 peptide loaded autologous APC: 35%
WT1- autologous APC; HLA allele A0203
  Cytotoxic CTL response, % vs WT1- autologous APC: 0%

## CC(C)C[C@H](NC(=O)[C@@H](N)[C@@H](C)O)C(=O)NCC(=O)N[C@H](C(=O)N[C@@H](C)C(=O)N[C@@H](C)C(=O)NCC(=O)N[C@@H](CO)C(=O)O)C(C)C [SEQ ID NO: 177] (H-TLGVAAGS-OH; N-terminus and C-terminus assumed)
[1]; HLA allele A6901
  Cytotoxic CTL response, % vs WT1+ allo APC with restricting HLA allele loaded with WT1 peptide: 57%
[2]; HLA allele A6901
  Cytotoxic CTL response, % vs WT1- allo APC with restricting HLA allele: 0%
[3]; HLA allele A6901
  Cytotoxic CTL response, % vs WT1 peptide loaded autologous APC: 80%
WT1- autologous APC; HLA allele A6901
  Cytotoxic CTL response, % vs WT1- autologous APC: 4%

## CC(C)C[C@H](NC(=O)[C@H](Cc1c[nH]cn1)NC(=O)[C@H](CC(=O)O)NC(=O)[C@H](CO)NC(=O)[C@H](CCCNC(=N)N)NC(=O)[C@H](CO)NC(=O)[C@H](Cc1ccccc1)NC(=O)[C@H](CCCCN)NC(=O)[C@@H](N)CCCNC(=N)N)C(=O)O [SEQ ID NO: 181] (H-RKFSRSDHL-OH; N-terminus and C-terminus assumed)
[1]; HLA allele A0201
  Cytotoxic CTL response, % vs WT1+ allo APC with restricting HLA allele loaded with WT1 peptide: 27%
[2]; HLA allele A0201
  Cytotoxic CTL response, % vs WT1- allo APC with restricting HLA allele: 1%
[3]; HLA allele A0201
  Cytotoxic CTL response, % vs WT1 peptide loaded autologous APC: 40%
WT1- autologous APC; HLA allele A0201
  Cytotoxic CTL response, % vs WT1- autologous APC: 3%

Source: US10815274B2, “Immunogenic WT-1 peptides and methods of use thereof” (Memorial Sloan Kettering Cancer Center, priority 2012, dated 2020)
